Data on 20 compounds can be found in patent US20090054451A1, “Use of Piperidine Derivatives as Agonists of Chemokine Receptor Activity” (Euroscreen S.A., priority 2007, published 2009).

Test [1] deals with T1, CCR5 receptor (Homo sapiens, UniProt P51681). Kind of test: Aequorin-based calcium flux assay, agonist mode. The class given is cell-based. Also noted: expressed in transfected cells; host or cells: Chinese hamster ovary (CHO) cells coexpressing apoaequorin and Gα16. Here is the method:
(§1) Briefly, Chinese hamster ovary cells expressing the CCR5 receptor are transfected to coexpress apoaequorin and Gα16. Cells are incubated with 5 μM Coelenterazine H (Promega) overnight at room temperature, and resuspended at a concentration of 0.1×10^6 cells/ml. Cells are then mixed with test agonist or antagonist compounds and light emission by the aequorin is recorded with a luminometer (FDSS 6000-Hamamatsu) for 30 sec. Results are expressed as Relative Light Units (RLU). Controls include cells not expressing CCR5 in order to exclude possible non-specific effects of the test compound.
An agonist response is defined as an increase of light emission by aequorin corresponding to 10% or more of the light emitted by a reference sample of cells expressing CCR5 and treated with a the reference agonist ligand MIP-1β.

In test [2] the target is T1, CCR5 receptor. Kind of test: 125I-MIP-1β binding competition assay. Also on record: expressed in transfected cells; host or cells: membranes of recombinant Chinese hamster ovary (CHO) cells. The settings on record: membranes of CHO cells expressing human CCR5; 0.05 nM 125I-MIP-1β. The procedure:
The ability of the compounds of the invention to inhibit the binding of MIP-1β was assessed by an in vitro radioligand binding assay. Membranes were prepared from Chinese hamster ovary recombinant cells which express the human CCR5 receptor. The membranes were incubated with 0.05 nM ^125I-MIP-1β in a HEPES 25 mM/CaCl2 5 mM/MgCl2 1 mM buffer and various concentrations of the compounds of the invention. The amount of iodinated MIP-1β bound to the receptor was determined after filtration by the quantification of membrane associated radioactivity using the TopCount-NXT reader (Packard). Competition curves were obtained for compounds of the invention and the concentration of compound which displaced 50% of bound radioligand (IC50) was calculated

For test [3], the system named is recombinant and non-replicative HIV virus. Kind of test: Inhibitory effect on HIV infection to MAGI-CCR5 cells (luciferase reporter virus). The class given is cell-based. Here is the method:
The inhibitory activity of the compounds of the invention on HIV infection is measured on the human MAGI R5 recombinant cell line coexpressing the human CCR5 receptor and CD4 at their extracellular membrane. MAGI R5 cells are plated in black view plates at 10,000 cells/well and incubated with the appropriate concentrations of the compounds of the invention during 1 hour. This is followed by a 24 hours infection period with the recombinant and non-replicative HIV virus coding for the firefly luciferase (Bona et al., 2006, Antimicrob. Agents Chemother. 50: 3407-3417). The inhibitory effect of the tested compound on virus entry in MAGI R5 cells is measured by a reduction of luciferase signal (TopCount-NXT reader (Packard) and detection luciferase kit: steadylite HTS assay kit (Perkin Elmer)) in the presence of the compound of the invention relative to the maximum signal obtained from cells infected with the virus without any added compound. The results of the tested compounds are reported as the concentration of compound required to inhibit 50% (IC50) of the maximum luciferase signal.
In general terms: A reporter such as luciferase makes a cellular process visible.

The target of test [4] is T1, CCR5 receptor. Kind of test: Aequorin-based calcium flux assay, antagonist mode (against reference agonist MIP-1β). For all read-outs here: key: Inactive means >30000 nm. Also noted: expressed in transfected cells; host or cells: Chinese hamster ovary (CHO) cells coexpressing apoaequorin and Gα16. The settings on record: CHO cells expressing CCR5, vs reference agonist MIP-1β; for IC50: read-out: Aequorin/Ca++ Antagonist assay IC50. Format: cell-based. Here is the method: as §1
An antagonist response is defined as a decrease of light emission by aequorin of 10% or more in a sample of cells expressing CCR5 stimulated by a reference agonist ligand MIP-1β and treated with the compound of the invention, relative to a sample of cells expressing CCR5 but only treated with the reference agonist ligand MIP-1β.
A general note: A change in cytosolic calcium serves as a functional read-out for many receptors and channels.

[5] abbreviates: CHO cells expressing CCR5, apoaequorin and Gα16, read-out: Aequorin/Ca++ assay EC50.
[6] abbreviates: Human immunodeficiency virus 1, MAGI, read-out: IC50 (HIV infection of MAGI R5 cells), range over the listed compounds.
Where [7] appears, read: Human immunodeficiency virus 1, MAGI-CCR5, 24 h, read-out: HIV-Infection assay IC50.
The mark [8] stands for this setting: CHO cells expressing CCR5, agonistic mode of action.
[9] abbreviates: CHO cells expressing CCR5, agonistic mode of action, read-out: Aequorin/Ca++ Agonist assay EC50.

Where two headings read alike, the source gives them in different places.

T1 sequence (P51681 whole entry): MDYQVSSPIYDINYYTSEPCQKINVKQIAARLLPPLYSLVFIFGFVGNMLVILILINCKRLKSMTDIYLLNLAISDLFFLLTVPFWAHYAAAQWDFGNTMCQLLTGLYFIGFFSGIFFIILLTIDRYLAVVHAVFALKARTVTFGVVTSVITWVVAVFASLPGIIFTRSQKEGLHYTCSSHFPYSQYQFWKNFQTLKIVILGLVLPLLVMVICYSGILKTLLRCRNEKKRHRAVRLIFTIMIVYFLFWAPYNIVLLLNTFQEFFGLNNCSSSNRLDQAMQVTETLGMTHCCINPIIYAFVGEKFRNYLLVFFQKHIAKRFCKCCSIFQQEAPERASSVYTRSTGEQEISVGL

For `O=C(Cc1ccccc1)NC1CCN(CCC(c2ccccc2)c2ccccc2)CC1` [Compound 7], in test [1] (setting [5]), the EC50 is 0.0432 µM. For the same compound, the IC50 in test [2] is 0.0267 µM; in test [3] (setting [6]), 0.0256 to 2.5 µM; in test [3] (setting [7]), 1.42 µM.

For the compound `CN(C(=O)C(c1ccccc1)N1Cc2ccccc2C1=O)C1CCN(CCC(c2ccccc2)c2ccccc2)CC1` (centres unmarked) [Compound 62], the “Aequorin/Ca++ Agonist assay EC50” value in test [1] (setting [8]) was “Inactive”. In addition, the IC50 in test [4] amounted to 1.23 µM.

`COc1ccc(CC(=O)NC2CCN(CCC(c3ccccc3)c3ccccc3)CC2)cc1` [Compound 3]: in test [1] (setting [5]), the EC50 turned out to be 0.0279 µM. Moreover, the IC50 was 0.0148 µM in test [2], 0.0256 to 2.5 µM in test [3] (setting [6]) and 0.871 µM in test [3] (setting [7]).

Regarding `C[C@H](CN(c1cccc(F)c1)S(=O)(=O)Cc1ccccc1)N1CCC(NC(=O)Cc2ccc(F)cc2)CC1` [Compound 97], in test [1] (setting [5]), the EC50 was found to be 0.0944 µM. Further, the IC50 in test [2] was 0.0002 µM; in test [3] (setting [7]) it was 0.003 µM.

On to `N#Cc1ccc(CC(=O)NC2CCN(CCC(c3ccccc3)c3ccccc3)CC2)cc1` [Compound 24], for which the EC50 in test [1] (setting [5]) was found to be 0.104 µM. Further, the results for the IC50 in test [2], in test [3] (setting [6]) and in test [3] (setting [7]) were 0.00325 µM, 0.0256 to 2.5 µM and 0.384 µM, respectively.

`O=C(Cc1c[nH]c2ccccc12)NC1CCN(CCC(c2ccccc2)c2ccccc2)CC1` [Compound 25]: the EC50 in test [1] (setting [5]) was 0.0908 µM. The figures for the IC50 in test [2], in test [3] (setting [6]) and in test [3] (setting [7]) were 0.0675 µM, 0.0256 to 2.5 µM and 1.13 µM, respectively.

Consider `C[C@H](CN(c1ccccc1)S(=O)(=O)Cc1ccccc1)N1CCC(NC(=O)Cc2ccc(C#N)cc2)CC1` [Compound 93], for which, in test [1] (setting [5]), the EC50 worked out at 0.0508 µM. In addition, the IC50 in test [2] worked out at 0.0005 µM; in test [3] (setting [7]), 0.0019 µM.

Turning to `CS(=O)(=O)c1ccc(CC(=O)NC2CCN(CCC(c3ccccc3)c3ccccc3)CC2)cc1` [Compound 2], the EC50 in test [1] (setting [5]) came to 0.0332 µM. In addition, the results for the IC50 in test [2], in test [3] (setting [6]) and in test [3] (setting [7]) were 0.00661 µM, 0.0256 to 2.5 µM and 0.345 µM, respectively.

Regarding `C[C@H](CN(c1cccc(F)c1)S(=O)(=O)Cc1ccccc1)N1CCC(NC(=O)Cc2ccccc2F)CC1` [Compound 80], in test [1] (setting [5]), the EC50 is 0.0313 µM. Further, the IC50 in test [2] turned out to be 0.0008 µM; in test [3] (setting [7]), 0.027 µM.

As for `C[C@H](CN(c1cccc(F)c1)S(=O)(=O)Cc1ccccc1)N1CCC(NC(=O)Cc2ccc(F)cc2F)CC1` [Compound 81], the EC50 in test [1] (setting [5]) is 0.0381 µM. Also, the IC50 in test [2] came out at 0.0002 µM; in test [3] (setting [7]) it was 0.0146 µM.

Turning to `O=C(NC1CCN(CCC(c2ccccc2)c2ccccc2)CC1)C(c1ccccc1)N1Cc2ccccc2C1=O` (centres unmarked) [Compound 37], in test [1] (setting [9]), the EC50 came to 4.25 µM. Further, the “Aequorin/Ca++ Antagonist assay IC50” value in test [4] is “Inactive”.

As to `CC(CC(c1ccccc1)c1ccccc1)N1CCC(NC(=O)Cc2ccc(S(C)(=O)=O)cc2)CC1` (centres unmarked) [Compound 64], the EC50 in test [1] (setting [5]) was determined as 0.0834 µM. Also, the IC50 in test [2] was 0.00014 µM; in test [3] (setting [6]), 0.0256 to 2.5 µM; in test [3] (setting [7]), 0.0256 µM.

For `CN(C(=O)CN1Cc2ccccc2C1=O)C1CCN(CCC(c2ccccc2)c2ccccc2)CC1` [Compound 63], the “Aequorin/Ca++ Agonist assay EC50” value in test [1] (setting [8]) is given as “Inactive”. Besides, in test [4], the IC50 amounted to 1.43 µM.

Consider `C[C@H](CN(c1ccccc1)S(=O)(=O)Cc1ccccc1)N1CCC(NC(=O)Cc2ccc(F)cc2F)CC1` [Compound 113], for which the EC50 in test [1] (setting [5]) was determined as 0.0294 µM. Besides, in test [3] (setting [7]), the IC50 is 0.0046 µM.

In the case of `O=C(CN1Cc2ccccc2C1=O)NC1CCN(CCC(c2ccccc2)c2ccccc2)CC1` [Compound 31], the EC50 in test [1] (setting [9]) worked out at 0.47 µM. The “Aequorin/Ca++ Antagonist assay IC50” value in test [4] is “Inactive”.

Consider `CC(CC(c1ccccc1)c1ccccc1)N1CCC(NC(=O)Cc2ccc(C#N)cc2)CC1` (centres unmarked) [Compound 65], for which the EC50 in test [1] (setting [5]) stood at 0.117 µM. Also, the IC50 in test [2] was 0.00064 µM; in test [3] (setting [6]) it was 0.0256 to 2.5 µM; in test [3] (setting [7]), 0.0717 µM.

Regarding `O=C(Cc1ccc(Cl)cc1)NC1CCN(CCC(c2ccccc2)c2ccccc2)CC1` [Compound 1], the EC50 in test [1] (setting [5]) was 0.0588 µM. Further, the IC50 in test [2] is 0.00932 µM; in test [3] (setting [6]), 0.0256 to 2.5 µM; in test [3] (setting [7]), 0.333 µM. Moreover, the “Aequorin/Ca++ Antagonist assay IC50” value in test [4] is “Inactive”.

For the compound `O=C(Cc1ccc(OC(F)(F)F)cc1)NC1CCN(CCC(c2ccccc2)c2ccccc2)CC1` [Compound 5], in test [1] (setting [5]), the EC50 came out at 0.145 µM. Besides, the figures for the IC50 in test [2], in test [3] (setting [6]) and in test [3] (setting [7]) were 0.0234 µM, 0.0256 to 2.5 µM and 0.425 µM, respectively.

Regarding `C[C@H](CN(c1cccc(F)c1)S(=O)(=O)Cc1ccccc1)N1CCC(NC(=O)Cc2ccc(C(F)(F)F)cc2)CC1` [Compound 90], the EC50 in test [1] (setting [5]) was 0.18 µM. Besides, the values for the IC50 in test [2] and in test [3] (setting [7]) were 0.0007 µM and 0.0053 µM, respectively.

Consider `O=C(CC1CCCCC1)NC1CCN(CCC(c2ccccc2)c2ccccc2)CC1` [Compound 28], for which, in test [1] (setting [5]), the EC50 is 0.62 µM. Moreover, the IC50 in test [2] is 0.158 µM; in test [3] (setting [7]), 2.54 µM.
